Values of other authors as cited in patent publication US6960571B2, “Methods and compositions for administration of iron for the treatment of restless leg syndrome” (Luitpold Pharmaceuticals, Inc., priority 2003, dated 2005).
Where two headings read alike, the source gives them in different places.

## NC(=O)N1c2ccccc2C=Cc2ccccc21 [Carbamazepine]
Epilepsy patients, fetal malformation, rash, hyponatremia, hepatotoxicity, blood disorders, ataxia, gastro-intestinal problems, sexual dysfunction, toxicity
  % affected by side effects: 1-33%

## Clc1cccc(Cl)c1N=C1NCCN1 [Clonidine]
Hypertension patients, reduced blood pressure, dermatitis, systemic side effects (dry mouth, somnolence, dizziness, headache)
  % affected by side effects: 8-89%

## levodopa/carbidopa
Parkinson patients, dyskinesia, nausea, hallucinations
  % affected by side effects: 4-17%

## Pergolide w/ levodopa/carbidopa
Parkinson patients, dyskinesia, nausea, hallucinations, rhinitis, constipation, pain
  % affected by side effects: 7-62%

## CCCN[C@H]1CCc2nc(N)sc2C1 [Pramipexole]
Parkinson patients, somnolence, insomnia, nausea, constipation, hallucinations
  % affected by side effects: 9-28%

## Cc1nnc2n1-c1ccc(Cl)cc1C(c1ccccc1Cl)=NC2 [Triazolam]
Insomnia patients, drowsiness, dizziness, memory impairment
  % affected by side effects: 1-14%

## O=C1CN=C(c2ccccc2Cl)c2cc([N+](=O)[O-])ccc2N1 [Clonazepam]
Epilepsy patients, somnolence, depression, in-coordination
  % affected by side effects: 6-37%

## NCC1(CC(=O)O)CCCCC1 [Gabapentin]
Epilepsy patients, fatigue, dizziness, somnolence, ataxia
  % affected by side effects: 11-19%
